In PubChem BioAssay (NCI):
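Values below derive from 48-hour exposures of cells grown in 96-well plates, with endpoints linearly interpolated between the two concentrations bracketing the appropriate inhibition level. At the GI50, growth is halved. Definition used: TGI = concentration required for complete inhibition of growth.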 The source made the active and inactive calls. Cut-off read from the data, not from the text of the source: active = GI50 below about 0.43 µM; inactive = the rest.

Each compound was assayed on MDA-N (assay: NCI tumour cell line growth inhibition, 48 h).
CO[C@H]1C=C[C@@]23c4cc5c(cc4CO[C@]2(O)CN(C)[C@H]3C1)OCO5 showed a TGI of over 100 µM. In the case of CNc1nc(N)c(N=O)c(Nc2ccc(Br)cc2)n1, the TGI is reported as over 100 µM. O=c1[nH]c(=O)n(C2OC(CO)C(O)C(O)C2O)cc1F (stereo not given) was tested, and the TGI was over 100 µM. With CN1C(=O)c2ccccc2NC(=O)C12O[C@@H]2c1cccc(O)c1 (stereo not given in full) the TGI was over 100 µM. CC(C)CCCC(=O)CCCCCCC(=O)CCN(O)C(=O)C(N)CO (stereo not given) showed a TGI of 49.4 µM. In the case of CCCCN1CSC(=S)N(Cc2ccccc2)C1, the TGI is reported as over 100 µM. Cn1cnc([N+](=O)[O-])c1[Se]c1nc(N)nc2c1ncn2C1OC(CO)C(O)C1O (stereo not given) gave a TGI of over 100 µM. Cc1nc(-c2ccccc2)c(-c2ccccc2)s1 showed a TGI of 35.1 µM. COc1cc2c(c(OC)c1OC)-c1c(cc3c(c1OC)OCO3)C1OC2C(C)C1C (stereo not given) (tested in a mixture with another compound) showed a TGI of over 100 µM. CSc1nc2cc(S(=O)(=O)N3CCCCC3)ccc2s1 was tested, and the TGI was over 100 µM. For Cc1ccc2c(c1)CN(C(=O)CCC(=O)OCc1ccccc1)c1ccc(C)cc1CN2C(=O)CCC(=O)OCc1ccccc1, the TGI was over 100 µM. Nc1ncn(C2CC(O)C(CO)O2)c(=O)n1 (stereo not given) was tested, and the TGI was 7.2 µM. CS(=O)(=O)c1cc(=O)c2ccccc2s1 was tested, and the TGI was 16.2 µM. In the case of C/C=C(\C)CC/C=C/CO[Si](C)(C)C(C)(C)C, the TGI is reported as over 100 µM. Work on c1cc2c(ncc3cscc32)s1 yielded a TGI of over 100 µM.

Each compound was assayed on P388 leukemia (assay: NCI tumour cell line growth inhibition, 48 h).
In the case of Nc1ncn(C2CC(O)C(CO)O2)c(=O)n1 (stereo not given), the TGI is reported as 142 µM.

Each compound was assayed on P388/ADR leukemia (assay: NCI tumour cell line growth inhibition, 48 h).
With Nc1ncn(C2CC(O)C(CO)O2)c(=O)n1 (stereo not given) the TGI was 226 µM.

Each compound was assayed on RXF-631 renal (assay: NCI tumour cell line growth inhibition, 48 h).
For C/C=C1/C(=C/c2[nH]c(/C=c3\[nH]/c(=C/C4=NC(=O)C(CC)=C4C)c(C)c3CCC(=O)O)c(CCC(=O)O)c2C)NC(=O)C1C (stereo not given), the outcome was “inactive”. With CN(C)C(c1ccccc1)C(O)c1ccccc1 (stereo not given) the TGI was over 100 µM. In the case of Cc1[nH]c2ccccc2c1C1Cc2ccccc2N1C(=O)/C(Cl)=C/c1ccccc1 (stereo not given), the TGI is reported as over 100 µM. In the case of CC(=O)N1C/C(=C\c2ccc(N(C)C)cc2)C(=O)/C(=C/c2ccc(N(C)C)cc2)C1, the TGI is reported as over 100 µM. FC(F)(F)c1nc(-c2ccccc2)oc1Sc1nnc(Sc2oc(-c3ccccc3)nc2C(F)(F)F)s1 was tested, and the TGI was over 84.1 µM. N#CCc1ccc(C(C#N)/C(CCCC(=O)Nc2cccc([N+](=O)[O-])c2)=N/NC(N)=S)cc1 (stereo not given) was tested, and the TGI was over 100 µM. For COc1ccc(/C=C\c2cc(OC)c(OC)c(OC)c2)cc1OC(=O)NCCN(C)C, the GI50 was 0.258 µM. COc1ccc(/C(Cl)=C(\C=O)c2ccc([N+](=O)[O-])cc2)cc1 showed a TGI of 68.3 µM. Compound CC(C)c1ccc(C(c2ccc(OCC(=O)O)cc2)c2ccc(C(C)C)cc(=O)c2O)c(O)c(=O)c1 has a TGI of 31.3 µM. In the case of CCOC(=O)CCn1[nH]c(=O)c(Cl)c(Cl)c1=O, the TGI is reported as over 100 µM. For COc1ccc2c3c(coc13)C(CCC(=O)O)CC2 (stereo not given), the TGI was over 100 µM. COc1cc2c(c(OC)c1)C1(CC(CC#N)C2)SCCS1 (stereo not given) gave a TGI of over 100 µM. Work on CS(=O)(=O)c1cc(=O)c2ccccc2s1 yielded a TGI of 21.3 µM. O=C(/C=C/c1c(O)ccc2ccccc12)c1ccccc1 showed a TGI of over 100 µM. Compound Cc1ccc(-c2cc(=O)c3cc(C)c(C)c(C(=O)O)c3o2)cc1C has a TGI of over 100 µM. In the case of c1cc2c(ncc3cscc32)s1, the TGI is reported as over 100 µM. Fc1ccc(C2SCc3nc4ccccc4n32)cc1Cl (stereo not given) showed a TGI of over 100 µM.

What follows are compounds tested on SN12K1 renal (assay: NCI tumour cell line growth inhibition, 48 h).
Compound Nc1ncn(C2CC(O)C(CO)O2)c(=O)n1 (stereo not given) has a TGI of over 375 µM.
